Measurements taken from PubChem BioAssay AID1259407 (Chemical Carcinogenesis Research Information System (CCRIS), 2018).
Active and inactive are the calls of the source. How the calls were made is not given here.

Tested on: CCRIS mutagenicity, Ames/micronucleus/aberration tests
Test: CCRIS mutagenicity studies
[1] = Test System: AMES SALMONELLA TYPHIMURIUM, Strain/Indicator: TA97, Metabolic Activation: HAMSTER, LIVER, S-9, AROCLOR 1254 (10 OR 30%), Method: PREINCUBATION
[2] = Test System: AMES SALMONELLA TYPHIMURIUM, Strain/Indicator: TA97, Metabolic Activation: NONE, Method: PREINCUBATION
[3] = Test System: AMES SALMONELLA TYPHIMURIUM, Strain/Indicator: TA97, Metabolic Activation: RAT, LIVER, S-9, AROCLOR 1254 (10 OR 30%), Method: PREINCUBATION
[4] = Test System: AMES SALMONELLA TYPHIMURIUM, Strain/Indicator: TA98, Metabolic Activation: HAMSTER, LIVER, S-9, AROCLOR 1254 (10 OR 30%), Method: PREINCUBATION
[5] = Test System: AMES SALMONELLA TYPHIMURIUM, Strain/Indicator: TA98, Metabolic Activation: NONE, Method: PREINCUBATION
[6] = Test System: AMES SALMONELLA TYPHIMURIUM, Strain/Indicator: TA98, Metabolic Activation: RAT, LIVER, S-9, AROCLOR 1254 (10 OR 30%), Method: PREINCUBATION
[7] = Test System: AMES SALMONELLA TYPHIMURIUM, Strain/Indicator: TA100, Metabolic Activation: HAMSTER, LIVER, S-9, AROCLOR 1254 (10 OR 30%), Method: PREINCUBATION
[8] = Test System: AMES SALMONELLA TYPHIMURIUM, Strain/Indicator: TA100, Metabolic Activation: NONE, Method: PREINCUBATION
[9] = Test System: AMES SALMONELLA TYPHIMURIUM, Strain/Indicator: TA100, Metabolic Activation: RAT, LIVER, S-9, AROCLOR 1254 (10 OR 30%), Method: PREINCUBATION
[10] = Test System: AMES SALMONELLA TYPHIMURIUM, Strain/Indicator: TA1535, Metabolic Activation: HAMSTER, LIVER, S-9, AROCLOR 1254 (10 OR 30%), Method: PREINCUBATION
[11] = Test System: AMES SALMONELLA TYPHIMURIUM, Strain/Indicator: TA1535, Metabolic Activation: NONE, Method: PREINCUBATION
[12] = Test System: AMES SALMONELLA TYPHIMURIUM, Strain/Indicator: TA1535, Metabolic Activation: RAT, LIVER, S-9, AROCLOR 1254 (10 OR 30%), Method: PREINCUBATION

Structure (SMILES): C/C=C1/C[C@@H](C)[C@](O)(CO)C(=O)OCC2=CCN3CC[C@@H](OC1=O)[C@@H]23
- mutagenic call (Test System: AMES SALMONELLA TYPHIMURIUM, Strain/Indicator: TA97A, Metabolic Activation: RAT, LIVER, S-9, SODIUM PHENOBARBITAL AND BETA-NAPHTHOFLAVONE, Method: PREINCUBATION): inactive; negative
- mutagenic call (Test System: AMES SALMONELLA TYPHIMURIUM, Strain/Indicator: TA97A, Metabolic Activation: RAT, LIVER, S-9, SODIUM PHENOBARBITAL AND BETA-NAPHTHOFLAVONE, Method: STANDARD PLATE): inactive; negative
- mutagenic call (Test System: AMES SALMONELLA TYPHIMURIUM, Strain/Indicator: TA98, Metabolic Activation: RAT, LIVER, S-9, SODIUM PHENOBARBITAL AND BETA-NAPHTHOFLAVONE, Method: PREINCUBATION): inactive; negative
- mutagenic call (Test System: AMES SALMONELLA TYPHIMURIUM, Strain/Indicator: TA98, Metabolic Activation: RAT, LIVER, S-9, SODIUM PHENOBARBITAL AND BETA-NAPHTHOFLAVONE, Method: STANDARD PLATE): inactive; negative
- mutagenic call (Test System: AMES SALMONELLA TYPHIMURIUM, Strain/Indicator: TA100, Metabolic Activation: RAT, LIVER, S-9, SODIUM PHENOBARBITAL AND BETA-NAPHTHOFLAVONE, Method: PREINCUBATION): inactive; negative
- mutagenic call (Test System: AMES SALMONELLA TYPHIMURIUM, Strain/Indicator: TA100, Metabolic Activation: RAT, LIVER, S-9, SODIUM PHENOBARBITAL AND BETA-NAPHTHOFLAVONE, Method: STANDARD PLATE): inactive; negative
- mutagenic call (Test System: AMES SALMONELLA TYPHIMURIUM, Strain/Indicator: TA1535, Metabolic Activation: RAT, LIVER, S-9, SODIUM PHENOBARBITAL AND BETA-NAPHTHOFLAVONE, Method: PREINCUBATION): inactive; negative
- mutagenic call (Test System: AMES SALMONELLA TYPHIMURIUM, Strain/Indicator: TA1535, Metabolic Activation: RAT, LIVER, S-9, SODIUM PHENOBARBITAL AND BETA-NAPHTHOFLAVONE, Method: STANDARD PLATE): inactive; negative
- mutagenic call (Test System: AMES SALMONELLA TYPHIMURIUM, Strain/Indicator: TA1538, Metabolic Activation: RAT, LIVER, S-9, SODIUM PHENOBARBITAL AND BETA-NAPHTHOFLAVONE, Method: PREINCUBATION): inactive; negative
- mutagenic call (Test System: AMES SALMONELLA TYPHIMURIUM, Strain/Indicator: TA1538, Metabolic Activation: RAT, LIVER, S-9, SODIUM PHENOBARBITAL AND BETA-NAPHTHOFLAVONE, Method: STANDARD PLATE): inactive; negative

Structure (SMILES): N[C@@H](CCC(=O)Nc1ccc([N+](=O)[O-])cc1)C(=O)O
- mutagenic call (Test System: AMES SALMONELLA TYPHIMURIUM, Strain/Indicator: TA100, Metabolic Activation: NONE, Method: STANDARD PLATE): inactive; negative
- mutagenic call (Test System: AMES SALMONELLA TYPHIMURIUM, Strain/Indicator: TA100, Metabolic Activation: RAT KIDNEY, MICROSOMES, Method: STANDARD PLATE): inactive; negative
- mutagenic call (Test System: AMES SALMONELLA TYPHIMURIUM, Strain/Indicator: TA100, Metabolic Activation: RAT LIVER, MICROSOMES, Method: STANDARD PLATE): inactive; negative

Structure (SMILES): CCC(O)/C=C/C=O (configuration not stated)
- mutagenic call (End Point: IN VITRO CHROMOSOMAL ABERRATIONS, Test System: RAT HEPATOCYTES, Metabolic Activation: NONE): active; positive
- mutagenic call (End Point: IN VITRO MICRONUCLEUS, Test System: RAT HEPATOCYTES, Metabolic Activation: NONE): active; positive

Structure (SMILES): CC(C)Oc1ccc(Nc2ccccc2)cc1
- mutagenic call (End Point: IN VITRO CHROMOSOMAL ABERRATIONS, Test System: CHINESE HAMSTER LUNG CELLS (CHL), Metabolic Activation: RAT, LIVER, S-9, KC-400): inactive; negative; authors describe results as inconclusive
- mutagenic call (End Point: IN VITRO CHROMOSOMAL ABERRATIONS, Test System: CHINESE HAMSTER OVARY CELLS (CHO), Metabolic Activation: NONE): inactive; negative
- mutagenic call (End Point: IN VITRO CHROMOSOMAL ABERRATIONS, Test System: CHINESE HAMSTER OVARY CELLS (CHO), Metabolic Activation: RAT, LIVER, S-9, AROCLOR 1254): inactive; negative
- mutagenic call (End Point: IN VITRO CHROMOSOMAL ABERRATIONS, Test System: CHO-LB CELLS, Metabolic Activation: NONE): inactive; negative
- mutagenic call (End Point: IN VITRO CHROMOSOMAL ABERRATIONS, Test System: CHO-LB CELLS, Metabolic Activation: RAT, LIVER, S-9, AROCLOR 1254): inactive; negative
- mutagenic call [1]: inactive; negative
- mutagenic call [2]: inactive; negative
- mutagenic call [3]: inactive; negative
- mutagenic call [4]: inactive; negative
- mutagenic call [5]: inactive; negative
- mutagenic call [6]: inactive; negative
- mutagenic call [7]: inactive; negative
- mutagenic call [8]: inactive; negative
- mutagenic call [9]: inactive; negative
- mutagenic call [10]: inactive; negative
- mutagenic call [11]: inactive; negative
- mutagenic call [12]: inactive; negative

Structure (SMILES): c1ccc(CN2CCN=N2)cc1
- mutagenic call (Test System: AMES SALMONELLA TYPHIMURIUM, Strain/Indicator: TA1535, Metabolic Activation: NONE, Method: STANDARD PLATE): active; positive

Structure (SMILES): Nc1ccc([As](=O)(O)O)cc1
- mutagenic call [1]: inactive; negative
- mutagenic call [2]: inactive; negative
- mutagenic call [3]: inactive; negative
- mutagenic call [4]: inactive; negative
- mutagenic call [5]: inactive; negative
- mutagenic call [6]: inactive; negative
- mutagenic call [7]: inactive; negative
- mutagenic call [8]: inactive; negative
- mutagenic call [9]: inactive; negative
- mutagenic call [10]: inactive; negative
- mutagenic call [11]: inactive; negative
- mutagenic call [12]: inactive; negative

Structure (SMILES): NC(CNCCCC[C@H](N)C(=O)O)C(=O)O (some centres not stated)
- mutagenic call [2]: inactive; negative
- mutagenic call (Test System: AMES SALMONELLA TYPHIMURIUM, Strain/Indicator: TA97, Metabolic Activation: RAT, KIDNEY, S-9, AROCLOR 1254, Method: PREINCUBATION): inactive; negative
- mutagenic call (Test System: AMES SALMONELLA TYPHIMURIUM, Strain/Indicator: TA97, Metabolic Activation: RAT, LIVER, S-9, AROCLOR 1254, Method: PREINCUBATION): inactive; negative
- mutagenic call [5]: inactive; negative
- mutagenic call (Test System: AMES SALMONELLA TYPHIMURIUM, Strain/Indicator: TA98, Metabolic Activation: RAT, KIDNEY, S-9, AROCLOR 1254, Method: PREINCUBATION): inactive; negative
- mutagenic call (Test System: AMES SALMONELLA TYPHIMURIUM, Strain/Indicator: TA98, Metabolic Activation: RAT, LIVER, S-9, AROCLOR 1254, Method: PREINCUBATION): inactive; negative
- mutagenic call [8]: inactive; negative
- mutagenic call (Test System: AMES SALMONELLA TYPHIMURIUM, Strain/Indicator: TA100, Metabolic Activation: RAT, KIDNEY, S-9, AROCLOR 1254, Method: PREINCUBATION): inactive; negative
- mutagenic call (Test System: AMES SALMONELLA TYPHIMURIUM, Strain/Indicator: TA100, Metabolic Activation: RAT, LIVER, S-9, AROCLOR 1254, Method: PREINCUBATION): inactive; negative
- mutagenic call (Test System: AMES SALMONELLA TYPHIMURIUM, Strain/Indicator: TA102, Metabolic Activation: NONE, Method: PREINCUBATION): inactive; negative
- mutagenic call (Test System: AMES SALMONELLA TYPHIMURIUM, Strain/Indicator: TA102, Metabolic Activation: RAT, KIDNEY, S-9, AROCLOR 1254, Method: PREINCUBATION): inactive; negative
- mutagenic call (Test System: AMES SALMONELLA TYPHIMURIUM, Strain/Indicator: TA102, Metabolic Activation: RAT, LIVER, S-9, AROCLOR 1254, Method: PREINCUBATION): inactive; negative
